Laboratory results: US12269800B2, “Delivery of therapeutic alkaloid compounds” (priority 2021, dated 2025)
Like-named read-outs stand apart in the source and are kept apart here.

What was measured:
[1] = format: physicochemical; details: DI water, 25° C., 0.5 mM
[2] = Hydrolysis Assay of Example A2, Condition 1 (SGF with pepsin, pH 1.5, 37° C.); format: physicochemical; details: SGF with pepsin pH 1.5, 37° C., 0.5 mM
[3] = Plasma Stability Assay of Example A3, mouse plasma; details: % of prodrug compound remaining, 37° C.
[4] = Plasma Stability Assay of Example A3, human plasma; details: % of prodrug compound remaining, 37° C.
[5] = 5 µM
Method: (§1) 50 uL aliquots of positive controls and test compounds spiked into rat or human plasma (n=2) were added to a pre-warmed plate (37° C.) and shaken at 50 rpm. At each respective time point, the reaction was stopped by adding 500 μL of acetonitrile containing internal standards (100 nM aprozolam, 200 nM caffeine, 100 nM tolbutamide). All samples were vortexed for 10 minutes, followed by centrifugation at 3,220 g for 30 minutes to precipitate proteins. 100 μL of the supernatant is transferred to a new plate. The supernatant will be diluted with ultrapure water according to the LC-MS signal response and peak shape.

[6] = 5 µM; remark: listed apart in the source
Method: as §1

Row | Structure (SMILES) | Condition 2 Conversion (%) ([1]; time 1 min) | Condition 2 Conversion (%) ([1]; time 5 min) | Condition 2 Conversion (%) ([1]; time 30 min) | Condition 2 Conversion (%) ([1]; time 1 h) | Condition 2 Conversion (%) ([1]; time 4 h) | Condition 2 Conversion (%) ([1]; time 24 h) | Condition 1 Conversion (%) ([2]; time 1 min) | Condition 1 Conversion (%) ([2]; time 5 min) | Condition 1 Conversion (%) ([2]; time 30 min) | Condition 1 Conversion (%) ([2]; time 1 h) | Condition 1 Conversion (%) ([2]; time 4 h) | Condition 1 Conversion (%) ([2]; time 24 h) | Mouse Plasma Prodrug (%) ([3]; 0.0 min) | Mouse Plasma Prodrug (%) ([3]; 15 min) | Mouse Plasma Prodrug (%) ([3]; 30 min) | Mouse Plasma Prodrug (%) ([3]; 60 min) | Mouse Plasma Prodrug (%) ([3]; 120 min) | Mouse Plasma Prodrug (%) ([3]; 240 min) | Human Plasma Prodrug (%) ([4]; 0.0 min) | Rat Plasma Prodrug (%) ([5]; 0 min) | further results
1 | COc1ccc([C@@]23CCC(=NNC(=O)c4ccc(F)cc4)C[C@@H]2N(C)CC3)cc1OC [Compound 220, N-[[(3aS)-3a-(3,4-dimethoxyphenyl)-1-methyl-2,3,4,5,7,7a-hexahydroindol-6-ylidene]amino]-4-fluoro-benzamide] | 20.02 | 21.53 | 22.27 | 55.36 | 88.25 | 89.93 | – | – | – | – | – | – | – | – | – | – | – | – | – | – | –
2 | CCCCC(=O)OC1=C[C@@H]2N(C)CC[C@]2(c2ccc(OC)c(OC)c2)CC1 [Compound 268, N-[[(3aS,7aS)-3a-(3,4-dimethoxyphenyl)-1-methyl-3,4,5,7a-tetrahydro-2H-indol-6-yl] pentanoate] | 0 | 0 | 0 | 0 | 0 | 0 | 0 | 0 | 0 | 0 | 0 | 0 | – | – | – | – | – | – | – | – | –
3 | COc1ccc([C@@]23CC/C(=N/NC(=O)Nc4ccccc4Cl)C[C@@H]2N(C)CC3)cc1OC [Compound 270, 1-[(Z)—[(3aS,7aS)-3a-(3,4-dimethoxyphenyl)-1-methyl-2,3,4,5,7,7a-hexahydroindol-6-ylidene]amino]-3-(2-chlorophenyl)urea] | – | – | – | – | 1 | 1 | – | – | – | – | 1 | 1 | – | – | – | – | – | – | – | – | –
4 | COc1ccc([C@@]23CCC(OC(=O)c4ccc(C(C)C)cc4)=C[C@@H]2N(C)CC3)cc1OC [Compound 371, (3aS,7aS)-3a-(3,4-dimethoxyphenyl)-1-methyl-2,3,3a,4,5,7a-hexahydro-1H-indol-6-yl 4-isopropylbenzoate] | – | – | – | – | – | – | – | – | – | – | – | – | 100 | 10 | 0 | 0 | 0 | 0 | 100 | 100.0 | Human Plasma Prodrug (%) ([4]; 15 min): 99%; Human Plasma Prodrug (%) ([4]; 30 min): 92%; Human Plasma Prodrug (%) ([4]; 60 min): 87%; Human Plasma Prodrug (%) ([4]; 120 min): 78%; Human Plasma Prodrug (%) ([4]; 240 min): 27%; Rat Plasma Prodrug (%) ([5]; 10 min): 5.0%; Rat Plasma Prodrug (%) ([5]; 30 min): 0.2%; Rat Plasma Prodrug (%) ([5]; 60 min): 0.1%; Rat Plasma Prodrug (%) ([5]; 120 min): 0.0%; Rat Plasma Prodrug (%) ([5]; 240 min): 0.0%; Human Plasma Prodrug (%) ([6]; 0 min): 100.0%; Human Plasma Prodrug (%) ([6]; 10 min): >99%; Human Plasma Prodrug (%) ([6]; 30 min): 94.4%; Human Plasma Prodrug (%) ([6]; 60 min): 90.7%; Human Plasma Prodrug (%) ([6]; 120 min): 91.3%; Human Plasma Prodrug (%) ([6]; 240 min): 78.0%
5 | COc1ccc([C@@]23CCC(OC(=O)c4cccc(C)c4)=C[C@@H]2N(C)CC3)cc1OC [Compound 374, (3aS,7aS)-3a-(3,4-dimethoxyphenyl)-1-methyl-2,3,3a,4,5,7a-hexahydro-1H-indol-6-yl 3-methylbenzoate] | – | – | – | – | – | – | – | – | – | – | – | – | 100 | 33 | 4 | 0 | 0 | 0 | 100 | 100.0 | Human Plasma Prodrug (%) ([4]; 15 min): 98%; Human Plasma Prodrug (%) ([4]; 30 min): 88%; Human Plasma Prodrug (%) ([4]; 60 min): 84%; Human Plasma Prodrug (%) ([4]; 120 min): 62%; Human Plasma Prodrug (%) ([4]; 240 min): 11%; Rat Plasma Prodrug (%) ([5]; 10 min): 9.7%; Rat Plasma Prodrug (%) ([5]; 30 min): 0.3%; Rat Plasma Prodrug (%) ([5]; 60 min): 0.1%; Rat Plasma Prodrug (%) ([5]; 120 min): 0.0%; Rat Plasma Prodrug (%) ([5]; 240 min): 0.0%; Human Plasma Prodrug (%) ([6]; 0 min): 100.0%; Human Plasma Prodrug (%) ([6]; 10 min): >99%; Human Plasma Prodrug (%) ([6]; 30 min): >99%; Human Plasma Prodrug (%) ([6]; 60 min): >99%; Human Plasma Prodrug (%) ([6]; 120 min): >99%; Human Plasma Prodrug (%) ([6]; 240 min): 95.4%
6 | COc1ccc([C@@]23CCC(OC(=O)c4cccc(C)c4C)=C[C@@H]2N(C)CC3)cc1OC [Compound 373, (3aS,7aS)-3a-(3,4-dimethoxyphenyl)-1-methyl-2,3,3a,4,5,7a-hexahydro-1H-indol-6-yl 2,3-dimethylbenzoate] | – | – | – | – | – | – | – | – | – | – | – | – | 100 | 82 | 64 | 41 | 12 | 1 | 100 | 100.0 | Rat Plasma Prodrug (%) ([5]; 10 min): 81.0%; Rat Plasma Prodrug (%) ([5]; 30 min): 58.4%; Rat Plasma Prodrug (%) ([5]; 60 min): 26.8%; Rat Plasma Prodrug (%) ([5]; 120 min): 5.2%; Rat Plasma Prodrug (%) ([5]; 240 min): 1.3%; Human Plasma Prodrug (%) ([6]; 0 min): 100.0%; Human Plasma Prodrug (%) ([6]; 10 min): 96.3%; Human Plasma Prodrug (%) ([6]; 30 min): >99%; Human Plasma Prodrug (%) ([6]; 60 min): 94.8%; Human Plasma Prodrug (%) ([6]; 120 min): 89.9%; Human Plasma Prodrug (%) ([6]; 240 min): 96.3%
7 | COc1ccc([C@]23CCN(C)[C@H]2CC2(CC3)Oc3ccccc3O2)cc1OC [Compound 300, (3′aS,7′aS)-3′a-(3,4-dimethoxyphenyl)-1′-methyl-spiro[1,3-benzodioxole-2,6′-2,3,4,5,7,7a-hexahydroindole]] | 0 | 0 | 0 | 0 | 0 | 0 | 0 | 0 | 0 | 0 | 0 | 0 | – | – | – | – | – | – | – | – | –
8 | COc1ccc([C@]23CCN(C)[C@H]2CC2(CC3)OCC(COc3ccccc3OC)O2)cc1OC (stereo partly drawn) [Compound 216, (3′aS,7′aS)-3′a-(3,4-dimethoxyphenyl)-4-[(2-methoxyphenoxy)methyl]-1′-methyl-spiro[1,3-dioxolane-2,6′-2,3,4,5,7,7a-hexahydroindole]] | 0 | 0 | 0 | 0 | 0 | 0 | 0 | 0 | 0 | 0 | 0 | 0 | – | – | – | – | – | – | – | – | –
9 | COc1ccc([C@@]23CCC(=NNC(=O)CCCC(=O)O)C[C@@H]2N(C)CC3)cc1OC [Compound 246, 5-(2-((3aS,7aS)-3a-(3,4-dimethoxyphenyl)-1-methyloctahydro-6H-indol-6-ylidene)hydrazineyl)-5-oxopentanoic acid] | 40 | 50 | 60 | 75 | 100 | 100 | 100 | 100 | 100 | 100 | 100 | 100 | – | – | – | – | – | – | – | – | –
10 | COc1ccc([C@]23CCN(C)[C@H]2CC2(CC3)OCC(C34CC5CC(CC(C5)C3)C4)O2)cc1OC (stereo partly drawn) [Compound 281, (3′aS,7′aS)-4-(1-adamantyl)-3′a-(3,4-dimethoxyphenyl)-1′-methyl-spiro[1,3-dioxolane-2,6′-2,3,4,5,7,7a-hexahydroindole]] | 0 | 0 | 0 | 0 | 0 | 0 | 0 | 0 | 0 | 0 | 0 | 0 | – | – | – | – | – | – | – | – | –
11 | COc1ccc([C@@]23CCC(OC(=O)c4c(C)cccc4C)=C[C@@H]2N(C)CC3)cc1OC [Compound 372, (3aS,7aS)-3a-(3,4-dimethoxyphenyl)-1-methyl-2,3,3a,4,5,7a-hexahydro-1H-indol-6-yl 2,6-dimethylbenzoate] | – | – | – | – | – | – | – | – | – | – | – | – | 100 | 92 | 91 | 88 | 73 | 64 | 100 | 100.0 | Human Plasma Prodrug (%) ([4]; 15 min): 97%; Human Plasma Prodrug (%) ([4]; 30 min): 99%; Human Plasma Prodrug (%) ([4]; 60 min): 94%; Human Plasma Prodrug (%) ([4]; 120 min): 81%; Human Plasma Prodrug (%) ([4]; 240 min): 38%; Rat Plasma Prodrug (%) ([5]; 10 min): >99%; Rat Plasma Prodrug (%) ([5]; 30 min): >99%; Rat Plasma Prodrug (%) ([5]; 60 min): >99%; Rat Plasma Prodrug (%) ([5]; 120 min): 98.4%; Rat Plasma Prodrug (%) ([5]; 240 min): >99%; Human Plasma Prodrug (%) ([6]; 0 min): 100.0%; Human Plasma Prodrug (%) ([6]; 10 min): >99%; Human Plasma Prodrug (%) ([6]; 30 min): >99%; Human Plasma Prodrug (%) ([6]; 60 min): >99%; Human Plasma Prodrug (%) ([6]; 120 min): >99%; Human Plasma Prodrug (%) ([6]; 240 min): >99%
